Assay results from patent publication EP4603105A1, “PHARMACEUTICAL COMPOSITION CONTAINING CYCLIC COMPOUND HAVING SELECTIVE KRAS INHIBITORY EFFECT AGAINST HRAS AND NRAS” (CHUGAI SEIYAKU KABUSHIKI KAISHA, priority 2022, dated 2024).
*1 amine or outer side, *2 acyl side, *3 side chain or, on linkers, in order; H or OH if unused. Where a SMILES comes first, the peptide text is derived from it. Bridges are numbered along the chain shown (N, C = ends). [ ]: non-standard residue; d: D form. The star is where a group is joined. hPhe(3,5-F2-4-CF3) = N[C@@H](CCc1cc(F)c(C(F)(F)F)c(F)c1)C(=O)O; NPrPhe(4-CF3) = CCCN[C@@H](Cc1ccc(C(F)(F)F)cc1)C(=O)O; X16 = O=C([C@@H](N[*:1])C1CC(F)(F)C1)[*:2]; NMeGly(cPent) = CN[C@H](C(=O)O)C1CCCC1; X7 = C[C@@](N[*:1])(C(=O)[*:2])C1CC1; αMeCha = C[C@](N)(CC1CCCCC1)C(=O)O; X3 = CCC[C@](C)(N[*:1])C(=O)[*:2]; NMeD = CN[C@@H](CC(=O)O)C(=O)O; NMeL = CN[C@@H](CC(C)C)C(=O)O; αMeL = CC(C)C[C@](C)(N)C(=O)O; αMeV = CC(C)[C@](C)(N)C(=O)O; αMeS = C[C@](N)(CO)C(=O)O; Iva = CC[C@](C)(N)C(=O)O; Morpholide = C1CN(*)CCO1; Ac5c = NC1(C(=O)O)CCCC1; Aze = O=C(O)[C@@H]1CCN1; Sar = CNCC(=O)O; tBu = CC(C)(C)*; Allyl = C=CC*

Tests used:
[1] = molecular target: GDP-bound NRAS wild-type protein (Homo sapiens, UniProt P01111); experiment: Binding to NRAS by surface plasmon resonance (SPR), KD and KD ratio to KRAS; conditions: ratio of KD for GDP-bound NRAS wild-type protein to KD for KRAS
In short: (§1)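 GDP-loaded biotinylated Avi-tag RAS proteins (E. coli-expressed) captured on a Biotin CAPture chip at ~100–300 RU; single-cycle kinetics at 30°C, 100 µL/min, 75 s injections of rising compound concentrations. HBS pH 7.4 running buffer with 1 mM DTT, 10 mM MgCl2, 10 µM GDP, 4% DMSO. KD from 1:1 binding fit.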

[2] = molecular target: HRAS wild-type protein (Homo sapiens, UniProt P01112); experiment: Binding to HRAS by surface plasmon resonance (SPR), KD and KD ratio to KRAS; conditions: ratio of KD for HRAS wild-type protein to KD for KRAS
In short: as §1

[3] = test system: human lung cancer strain NCI-H441; assay type: cell-based
In short: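 Readout: […] after the ATP-based reagent. Compound: serial dilutions in dimethyl sulfoxide.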

GDP-bound NRAS wild-type protein, sequence (P01111 whole entry): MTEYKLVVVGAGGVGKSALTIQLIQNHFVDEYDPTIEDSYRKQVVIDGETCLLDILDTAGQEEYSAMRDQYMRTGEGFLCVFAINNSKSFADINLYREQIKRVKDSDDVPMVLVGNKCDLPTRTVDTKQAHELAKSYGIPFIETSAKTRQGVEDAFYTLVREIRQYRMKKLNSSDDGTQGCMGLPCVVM
HRAS wild-type protein, sequence (P01112 whole entry): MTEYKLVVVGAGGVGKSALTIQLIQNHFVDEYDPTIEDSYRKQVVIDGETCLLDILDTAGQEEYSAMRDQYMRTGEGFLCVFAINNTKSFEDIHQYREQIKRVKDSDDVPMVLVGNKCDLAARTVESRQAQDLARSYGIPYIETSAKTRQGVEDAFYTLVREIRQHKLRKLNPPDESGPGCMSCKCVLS

## CCCN1C(=O)[C@@H]2CCN2C(=O)CN(C)C(=O)[C@H](C2CC(F)(F)C2)NC(=O)[C@H](CC(C)C)N(C)C(=O)C[C@@H](C(=O)N2CCOCC2)N(C)C(=O)[C@H](C2CCCC2)N(C)C(=O)C2(CCCC2)NC(=O)[C@@H]2CCCN2C(=O)[C@H](CCc2cc(F)c(C(F)(F)F)c(F)c2)NC(=O)CN(C)C(=O)[C@@H]1Cc1ccc(C(F)(F)F)cc1 [PP0787] ([NMeL][X16][Sar][Aze][NPrPhe(4-CF3)][Sar][hPhe(3,5-F2-4-CF3)]P[Ac5c][NMeGly(cPent)][NMeD]-Morpholide; lactam N-11)
[1]
  NRAS /KRAS: C (A compound having a KD ratio of 0.1 or more and less than 3 is denoted as C)
[2]
  HRAS /KRAS: B (a compound having 3 or more and less than 10 is denoted as B)
[3]
  IC50: 38.3 nM

## CCCN1C(=O)CN(C)C(=O)CN(C)C(=O)[C@H]([C@@H](C)CC)NC(=O)[C@H](CC(C)C)N(C)C(=O)C[C@@H](C(=O)N(C)C)N(C)C(=O)[C@H](C2CCCC2)N(C)C(=O)C2(CCCC2)NC(=O)[C@@H]2CCCN2C(=O)[C@H](CCc2cc(F)c(C(F)(F)F)c(F)c2)NC(=O)CN(C)C(=O)[C@@H]1Cc1ccc(C(F)(F)F)cc1 [PP0788] ([NMeL]I[Sar][Sar][NPrPhe(4-CF3)][Sar][hPhe(3,5-F2-4-CF3)]P[Ac5c][NMeGly(cPent)][NMeD]-NMe2; lactam N-11)
[1]
  NRAS /KRAS: B (a compound having 3 or more and less than 10 is denoted as B)
[2]
  HRAS /KRAS: C (A compound having a KD ratio of 0.1 or more and less than 3 is denoted as C)
[3]
  IC50: 7.1 nM

## CCCN1C(=O)[C@@H]2CCN2C(=O)CN(C)C(=O)[C@H]([C@@H](C)CC)NC(=O)[C@H](CC(C)C)N(C)C(=O)C[C@@H](C(=O)N2CCOCC2)N(C)C(=O)[C@H](C2CCCC2)N(C)C(=O)C2(CCCC2)NC(=O)[C@@H]2CCCN2C(=O)[C@H](CCc2cc(F)c(C(F)(F)F)c(F)c2)NC(=O)CN(C)C(=O)[C@@H]1Cc1ccc(C(F)(F)F)cc1 [PP0789] ([NMeL]I[Sar][Aze][NPrPhe(4-CF3)][Sar][hPhe(3,5-F2-4-CF3)]P[Ac5c][NMeGly(cPent)][NMeD]-Morpholide; lactam N-11)
[1]
  NRAS /KRAS: C (A compound having a KD ratio of 0.1 or more and less than 3 is denoted as C)
[2]
  HRAS /KRAS: B (a compound having 3 or more and less than 10 is denoted as B)
[3]
  IC50: 12.5 nM

## CCCN1C(=O)[C@@H]2CCN2C(=O)CN(C)C(=O)[C@H]([C@@H](C)CC)NC(=O)[C@H](CC(C)C)N(C)C(=O)C[C@@H](C(=O)N2CCOCC2)N(C)C(=O)[C@H](C2CCCC2)N(C)C(=O)[C@](C)(CC)NC(=O)[C@@H]2CCCN2C(=O)[C@H](CCc2cc(F)c(C(F)(F)F)c(F)c2)NC(=O)CN(C)C(=O)[C@@H]1Cc1ccc(C(F)(F)F)cc1 [PP0790] ([NMeL]I[Sar][Aze][NPrPhe(4-CF3)][Sar][hPhe(3,5-F2-4-CF3)]P[Iva][NMeGly(cPent)][NMeD]-Morpholide; lactam N-11)
[1]
  NRAS /KRAS: C (A compound having a KD ratio of 0.1 or more and less than 3 is denoted as C)
[2]
  HRAS /KRAS: B (a compound having 3 or more and less than 10 is denoted as B)
[3]
  IC50: 28.8 nM

## CCCN1C(=O)[C@@H]2CCN2C(=O)CN(C)C(=O)[C@H]([C@@H](C)CC)NC(=O)[C@H](CC(C)C)N(C)C(=O)C[C@@H](C(=O)N2CCOCC2)N(C)C(=O)[C@H](C2CCCC2)N(C)C(=O)[C@](C)(C2CC2)NC(=O)[C@@H]2CCCN2C(=O)[C@H](CCc2cc(F)c(C(F)(F)F)c(F)c2)NC(=O)CN(C)C(=O)[C@@H]1Cc1ccc(C(F)(F)F)cc1 [PP0791] ([NMeL]I[Sar][Aze][NPrPhe(4-CF3)][Sar][hPhe(3,5-F2-4-CF3)]P[X7][NMeGly(cPent)][NMeD]-Morpholide; lactam N-11)
[1]
  NRAS /KRAS: C (A compound having a KD ratio of 0.1 or more and less than 3 is denoted as C)
[2]
  HRAS /KRAS: B (a compound having 3 or more and less than 10 is denoted as B)
[3]
  IC50: 86 nM

## CCCN1C(=O)[C@@H]2CCN2C(=O)CN(C)C(=O)[C@H]([C@@H](C)CC)NC(=O)[C@H](CC(C)C)N(C)C(=O)C[C@@H](C(=O)N2CCOCC2)N(C)C(=O)[C@H](C2CCCC2)N(C)C(=O)[C@](C)(C(C)C)NC(=O)[C@@H]2CCCN2C(=O)[C@H](CCc2cc(F)c(C(F)(F)F)c(F)c2)NC(=O)CN(C)C(=O)[C@@H]1Cc1ccc(C(F)(F)F)cc1 [PP0792] ([NMeL]I[Sar][Aze][NPrPhe(4-CF3)][Sar][hPhe(3,5-F2-4-CF3)]P[αMeV][NMeGly(cPent)][NMeD]-Morpholide; lactam N-11)
[1]
  NRAS /KRAS: C (A compound having a KD ratio of 0.1 or more and less than 3 is denoted as C)
[2]
  HRAS /KRAS: B (a compound having 3 or more and less than 10 is denoted as B)
[3]
  IC50: 112 nM

## CCCN1C(=O)[C@@H]2CCN2C(=O)CN(C)C(=O)[C@H]([C@@H](C)CC)NC(=O)[C@H](CC(C)C)N(C)C(=O)C[C@@H](C(=O)N2CCOCC2)N(C)C(=O)[C@H](C2CCCC2)N(C)C(=O)[C@](C)(CCC)NC(=O)[C@@H]2CCCN2C(=O)[C@H](CCc2cc(F)c(C(F)(F)F)c(F)c2)NC(=O)CN(C)C(=O)[C@@H]1Cc1ccc(C(F)(F)F)cc1 [PP0794] ([NMeL]I[Sar][Aze][NPrPhe(4-CF3)][Sar][hPhe(3,5-F2-4-CF3)]P[X3][NMeGly(cPent)][NMeD]-Morpholide; lactam N-11)
[1]
  NRAS /KRAS: C (A compound having a KD ratio of 0.1 or more and less than 3 is denoted as C)
[2]
  HRAS /KRAS: B (a compound having 3 or more and less than 10 is denoted as B)
[3]
  IC50: 122 nM

## CCCN1C(=O)[C@@H]2CCN2C(=O)CN(C)C(=O)[C@H]([C@@H](C)CC)NC(=O)[C@H](CC(C)C)N(C)C(=O)C[C@@H](C(=O)N2CCOCC2)N(C)C(=O)[C@H](C2CCCC2)N(C)C(=O)[C@](C)(CC(C)C)NC(=O)[C@@H]2CCCN2C(=O)[C@H](CCc2cc(F)c(C(F)(F)F)c(F)c2)NC(=O)CN(C)C(=O)[C@@H]1Cc1ccc(C(F)(F)F)cc1 [PP0795] ([NMeL]I[Sar][Aze][NPrPhe(4-CF3)][Sar][hPhe(3,5-F2-4-CF3)]P[αMeL][NMeGly(cPent)][NMeD]-Morpholide; lactam N-11)
[1]
  NRAS /KRAS: C (A compound having a KD ratio of 0.1 or more and less than 3 is denoted as C)
[2]
  HRAS /KRAS: B (a compound having 3 or more and less than 10 is denoted as B)
[3]
  IC50: 356 nM

## CCCN1C(=O)[C@@H]2CCN2C(=O)CN(C)C(=O)[C@H]([C@@H](C)CC)NC(=O)[C@H](CC(C)C)N(C)C(=O)C[C@@H](C(=O)N2CCOCC2)N(C)C(=O)[C@H](C2CCCC2)N(C)C(=O)[C@](C)(CC2CCCCC2)NC(=O)[C@@H]2CCCN2C(=O)[C@H](CCc2cc(F)c(C(F)(F)F)c(F)c2)NC(=O)CN(C)C(=O)[C@@H]1Cc1ccc(C(F)(F)F)cc1 [PP0796] ([NMeL]I[Sar][Aze][NPrPhe(4-CF3)][Sar][hPhe(3,5-F2-4-CF3)]P[αMeCha][NMeGly(cPent)][NMeD]-Morpholide; lactam N-11)
[1]
  NRAS /KRAS: C (A compound having a KD ratio of 0.1 or more and less than 3 is denoted as C)
[2]
  HRAS /KRAS: B (a compound having 3 or more and less than 10 is denoted as B)
[3]
  IC50: 438 nM

## CCCN1C(=O)[C@@H]2CCN2C(=O)CN(C)C(=O)[C@H]([C@@H](C)CC)NC(=O)[C@H](CC(C)C)N(C)C(=O)C[C@@H](C(=O)N2CCOCC2)N(C)C(=O)[C@H](C2CCCC2)N(C)C(=O)[C@](C)(COC)NC(=O)[C@@H]2CCCN2C(=O)[C@H](CCc2cc(F)c(C(F)(F)F)c(F)c2)NC(=O)CN(C)C(=O)[C@@H]1Cc1ccc(C(F)(F)F)cc1 [PP0798] ([NMeL]I[Sar][Aze][NPrPhe(4-CF3)][Sar][hPhe(3,5-F2-4-CF3)]P[αMeS](Me)[NMeGly(cPent)][NMeD]-Morpholide; lactam N-11)
[1]
  NRAS /KRAS: C (A compound having a KD ratio of 0.1 or more and less than 3 is denoted as C)
[2]
  HRAS /KRAS: B (a compound having 3 or more and less than 10 is denoted as B)
[3]
  IC50: 61.5 nM

## C=CCOC[C@]1(C)NC(=O)[C@@H]2CCCN2C(=O)[C@H](CCc2cc(F)c(C(F)(F)F)c(F)c2)NC(=O)CN(C)C(=O)[C@H](Cc2ccc(C(F)(F)F)cc2)N(CCC)C(=O)[C@@H]2CCN2C(=O)CN(C)C(=O)[C@H]([C@@H](C)CC)NC(=O)[C@H](CC(C)C)N(C)C(=O)C[C@@H](C(=O)N2CCOCC2)N(C)C(=O)[C@H](C2CCCC2)N(C)C1=O [PP0799] ([NMeL]I[Sar][Aze][NPrPhe(4-CF3)][Sar][hPhe(3,5-F2-4-CF3)]P[αMeS](Allyl)[NMeGly(cPent)][NMeD]-Morpholide; lactam N-11)
[1]
  NRAS /KRAS: C (A compound having a KD ratio of 0.1 or more and less than 3 is denoted as C)
[2]
  HRAS /KRAS: B (a compound having 3 or more and less than 10 is denoted as B)
[3]
  IC50: 36.3 nM

## CCCN1C(=O)[C@@H]2CCN2C(=O)CN(C)C(=O)[C@H]([C@@H](C)CC)NC(=O)[C@H](CC(C)C)N(C)C(=O)C[C@@H](C(=O)N2CCOCC2)N(C)C(=O)[C@H](C2CCCC2)N(C)C(=O)[C@](C)(COC(C)(C)C)NC(=O)[C@@H]2CCCN2C(=O)[C@H](CCc2cc(F)c(C(F)(F)F)c(F)c2)NC(=O)CN(C)C(=O)[C@@H]1Cc1ccc(C(F)(F)F)cc1 [PP0800] ([NMeL]I[Sar][Aze][NPrPhe(4-CF3)][Sar][hPhe(3,5-F2-4-CF3)]P[αMeS](tBu)[NMeGly(cPent)][NMeD]-Morpholide; lactam N-11)
[1]
  NRAS /KRAS: C (A compound having a KD ratio of 0.1 or more and less than 3 is denoted as C)
[2]
  HRAS /KRAS: B (a compound having 3 or more and less than 10 is denoted as B)
[3]
  IC50: 186 nM
